# Laboratory results reported in US5183821A, “Method for treating leukemias using N-(2-dimethylaminoethyl)-3-amino-1,8-naphthalimide for treating leukemias and solid tumors” (priority 1991, dated 1993).
# Assays:
# leukemia P388 = test: NCI studies against leukemia P388 (Appendix 1, MDA and T/C); type: in vivo, murine; settings: for response vs control in vivo at 30 mg/kg: P388, dose 30,00 mg/kg; for minimal effective dose: P388; for minimal effective dose / MDA against leukemia P388: minor active dose reaching T/C≥120; for STATUS (activity against leukemia P388): at the dose of the same line of the appendix table; for response vs control in vivo at 60 mg/kg: P388, dose 60,00 mg/kg; for response vs control in vivo at 120 mg/kg: P388, dose 120,00 mg/kg; for response vs control in vivo at 240 mg/kg: P388, dose 240,00 mg/kg
# From the text: On the other hand, murine transplantable leukemias are a good predictor of anti-leukemia activity in human beings (Kenis "Dose schedules and mode of administration of chemotherapeutic agents in man". Recent Results Cancer Res. 21, 54-61 (1969). Only those tests which use the survival times as an activity parameter are valid as predictors of antileukemia activity in human beings (for instance, leukemia p388 y L-1210), whilst "in vitro" tests (HeLa cells and other) are inappropriate (Llombart-Rodriguez, 1983). NCI data generated in the last years confirm the value of above assertions to compounds of general formula [drawing 1] as described in U.S. Pat. No. 4,204,063.
# Experimental results from NCI studies against leukemia P388 are shown in an appendix (Appendix 1). In order to simplify the presentation of results we have extracted from these the minor active dose (MDA) against leukemia P388--for each compound. MDA is defined as the minor dose of the drug that reaches the minimal activity criteria of the NCI. For leukemia P388 this criteria on the basis of survival time is a minimal increase in survival of treated animals over a control resulting in a T/C≥120. In the following table the MDA for 14 examples are presented. In cases where none of the tested doses reached the MDA, the MDA is indicated as "NONE". The column "cytotoxic activity" has been extracted from U.S. Pat. No. 4,204,063. Data are presented in order of the highest to lowest cytotoxic activity.
# HeLa cells = settings: cytotoxic activity in vitro, monolayer; cited from earlier work
SMILES,response vs control in vivo at 30 mg/kg (leukemia P388; Mus musculus),minimal effective dose (leukemia P388; Mus musculus),STATUS (activity against leukemia P388) (leukemia P388),ID50 in HeLa cells (HeLa cells),response vs control in vivo at 60 mg/kg (leukemia P388; Mus musculus),response vs control in vivo at 120 mg/kg (leukemia P388; Mus musculus),response vs control in vivo at 240 mg/kg (leukemia P388; Mus musculus),MDA against leukemia P388 (leukemia P388),further results
CCOC(=O)Nc1cc2c3c(cccc3c1)C(=O)N(CCN(C)C)C2=O [Example 28],123%,30 mg/kg,T/C > 120 active,10.0 µg/mL,,,,,
Nc1cc2c3c(cccc3c1)C(=O)N(CCN1CCCCC1)C2=O [Example 12],,,None dose tested,8.0 µg/mL,108%,103%,114%,NONE,
CCN(CC)CCN1C(=O)c2cccc3cc(N)cc(c23)C1=O [Example 10],,3.2 mg/kg,T/C > 120 active,3.0 µg/mL,,,,,"response vs control in vivo at 1 mg (leukemia P388; Mus musculus, P388, dose 1,56 mg as printed): 101%; response vs control in vivo at 1 mg (leukemia P388; Mus musculus, P388, dose 1,60 mg as printed): 100%; response vs control in vivo at 3 mg (leukemia P388; Mus musculus, P388, dose 3,12 mg as printed): 98%; response vs control in vivo at 3 mg (leukemia P388; Mus musculus, P388, dose 3,20 mg as printed): 108%; response vs control in vivo at 6 mg (leukemia P388; Mus musculus, P388, dose 6,25 mg as printed): 98%; response vs control in vivo at 6 mg (leukemia P388; Mus musculus, P388, dose 6,50 mg as printed): 107%; response vs control in vivo at 13 mg (leukemia P388; Mus musculus, P388, dose 13,00 mg as printed): 121%; response vs control in vivo at 25 mg (leukemia P388; Mus musculus, P388, dose 25,00 mg as printed): 114%; response vs control in vivo at 26 mg (leukemia P388; Mus musculus, P388, dose 26,00 mg as printed): 124%; response vs control in vivo at 50 mg (leukemia P388; Mus musculus, P388, dose 50,00 mg as printed): 160%; response vs control in vivo at 100 mg (leukemia P388; Mus musculus, P388, dose 100,00 mg as printed): < 100%"
Nc1cc2c3c(cccc3c1)C(=O)N(CCN1CCCC1)C2=O [Example 11],,6.5 mg/kg,T/C > 120 active,1.5 µg/mL,,,,,"response vs control in vivo at 24 mg/kg (leukemia P388; Mus musculus, P388, dose 24,20 mg/kg): 160%; response vs control in vivo at 48 mg/kg (leukemia P388; Mus musculus, P388, dose 48,39 mg/kg): 96%"
O=C1c2cccc3cc([N+](=O)[O-])cc(c23)C(=O)N1CCN1CCOCC1 [Example 4],,,None dose tested,6.0 µg/mL,96%,96%,100%,NONE,
O=C1c2cccc3cc(O)cc(c23)C(=O)N1CCN1CCOCC1 [Example 24],107%,240 mg/kg,T/C > 120 active,3.5 µg/mL,110%,117%,127%,,
CC(=O)Nc1cc2c3c(cccc3c1)C(=O)N(CCN1CCCC1)C2=O [Example 31],186%,30 mg/kg,T/C > 120 active,5.0 µg/mL,184%,107%,,,
CC(=O)Nc1cc2c3c(cccc3c1)C(=O)N(CCN(C)C)C2=O [Example 30],,3.75 mg/kg,T/C > 120 active,4.0 µg/mL,< 100%,,,,"response vs control in vivo at 3.75 mg/kg (leukemia P388; Mus musculus, P388, dose 3,75 mg/kg): 137%; response vs control in vivo at 7 mg/kg (leukemia P388; Mus musculus, P388, dose 7,50 mg/kg): 144%; T/C % (leukemia P388; dose 120,00 mg/kg): Toxic.; T/C % (leukemia P388; dose 240,00 mg/kg): Toxic."
CCN(CC)CCCN1C(=O)c2cccc3cc([N+](=O)[O-])cc(c23)C1=O [Example 3],,,None dose tested,20.0 µg/mL,108%,103%,114%,NONE,
Nc1cc2c3c(cccc3c1)C(=O)N(CCN1CCOCC1)C2=O [Example 13],,,None dose tested,10.0 µg/mL,102%,102%,109%,NONE,
COc1cc2c3c(cccc3c1)C(=O)N(CCN1CCCC1)C2=O [Example 27],,,None dose tested,0.75 µg/mL,,,,NONE,"response vs control in vivo at 17 mg/kg (leukemia P388; Mus musculus, P388, dose 17,30 mg/kg): 112%; response vs control in vivo at 34 mg/kg (leukemia P388; Mus musculus, P388, dose 34,70 mg/kg): 116%; response vs control in vivo at 50 mg/kg (leukemia P388; Mus musculus, P388, dose 50,00 mg/kg): 100%; response vs control in vivo at 69 mg/kg (leukemia P388; Mus musculus, P388, dose 69,30 mg/kg): 116%; response vs control in vivo at 100 mg/kg (leukemia P388; Mus musculus, P388, dose 100,00 mg/kg): 101%; response vs control in vivo at 200 mg/kg (leukemia P388; Mus musculus, P388, dose 200,00 mg/kg): 100%; T/C % (leukemia P388; dose 138,60 mg/kg): Toxic"
CCOC(=O)Nc1cc2c3c(cccc3c1)C(=O)N(CCN1CCCC1)C2=O [Example 29],127%,30 mg/kg,T/C > 120 active,10.0 µg/mL,131%,135%,158%,,
COc1cc2c3c(cccc3c1)C(=O)N(CCN(C)C)C2=O [Example 26],,18.9 mg/kg,T/C > 120 active,1.5 µg/mL,,,,,
